Reference: patent US9101577B2, “Analgesic pharmaceutical composition for oral administration” (Warszawski Uniwersytet Medyczny, priority 2011, dated 2015)

How the values were obtained:
[1] = tested on: Male Wistar rats; test: Acute activity after single p.o. administration, paw withdrawal test (Randall and Selitto), % of analgesia; type: in vivo, rat; details: single administration, 15 mg magnesium ions/kg p.o. with tramadol 125 mg/kg p.o.
Experimental: (§1) Male Wistar rats (250-300 g) were housed in a room maintained at a temperature of 20±2° C. under 12 h-12 h light-dark cycles. The animals had free access to food and water. Experimental groups consisted of six rats.
(§2) Drugs • Morphine at a dose of 15 mg/kg, codeine at a dose of 175 mg/kg, tramadol at a dose of 125 mg/kg and oxycodone at a dose of 5 mg/kg were dissolved in distilled water; • Dihydrocodeine at a dose of 50 mg/kg was suspended in 1% solution of methylcellulose; • Magnesium lactate (in micronized form)—at a dose of 15 mg magnesium ions/kg (150 mg of magnesium lactate/kg) was suspended in 0.5% solution of methylcellulose; • Magnesium lactate in normal (non-micronized) form—at doses of 15 or 30 mg magnesium ions/kg (150 or 300 mg of magnesium lactate/kg, respectively) was suspended in 0.5% solution of methylcellulose; • Magnesium citrate (in micronized and normal form)—at a dose of 15 mg magnesium ions/kg (112 mg of magnesium citrate/kg) was dissolved in distilled water; • Magnesium hydroaspartate (in micronized and normal form)—at a dose of 15 mg magnesium ions/kg (216 mg of magnesium hydroaspartate/kg) was suspended in 0.5% solution of methylcellulose; • Magnesium chloride (in micronized and normal form)—at a dose of 15 mg magnesium ions/kg (59.5 mg of magnesium chloride/kg) was dissolved in distilled water; • Control animals received a 0.5% solution of methylcellulose, a 1% solution of methylcellulose and distilled water, respectively, according to the same time schedule.
Magnesium salts and investigated opioids were administered concomitantly.
The micronized form of magnesium salts used in experiments contains particles of magnesium compounds of size D90<50 μm.
The normal magnesium salts form used in experiments contains particles of sizes commonly available in the market.
Acute activity of investigated drugs was measured in short time periods (from 5 to 300 min) after single administration.
(§3) All drugs were administered per os (p.o.); literally—orally. However, in practice, drugs were administered intragastric via a gastric tube.
(§4) Changes in pain thresholds were determined using a mechanical stimuli—the modification of the classic paw withdrawal test described by Randall and Selitto [1957]. In order to produce mechanical stimulation, progressively increasing pressure was applied to the dorsal surface of the rat's paw using an analgesymeter. The instrument used increased the force on the paw at a rate of 32 grams per second. The nociceptive threshold was defined as force in grams, at which the rat attempted to withdraw its right hindpaw and values of pressure were recorded at this very moment. At least two observers controlled the response.
(§5) Nociceptive thresholds (average of two trials) measured for each animal before single administration of investigated drugs (measurement of acute activity) or in day 0 before the first administration (measurement of prolonged activity) constituted the baseline pain threshold—A. Next, measurements of the withdrawal threshold to mechanical stimuli were performed at 5, 15, 30, 60, 90, 120, 180, 240, 300 min after drug administration (measurements of acute activity) or every day before drug administration (measurements of prolonged activity)—B.
(§6) In all experimental sessions (i.e. every day, each drug investigated) values of thresholds obtained (B) were compared to baseline (A).
(§7) Changes in pain threshold were calculated as a percent of baseline value according to the following formula:
(§8) [formula] • C—% of analgesia; A—pressure (in g), baseline pain threshold; B—pressure (in g) in consecutive measurements.
(§9) Percents of analgesia values calculated as above for individual animals were subsequently used to calculate average values in particular experimental groups and for statistical analysis.
The results are expressed as mean values±standard deviation of the mean (±S.E.M.).

[2] = tested on: Male Wistar rats; test: Prolonged activity on repeated daily p.o. administration (7 or 10 days), paw withdrawal test (Randall and Selitto); type: in vivo, rat; details: 15 mg magnesium ions/kg p.o. with oxycodone 5 mg/kg p.o.
Experimental: as §1, §2
Prolonged activity of the investigated drugs was measured the following day after initial administration, but before the next administration as well as after cessation of administration. Drugs were administered for seven consecutive days (administration of morphine, codeine, dihydrocodeine, oxycodone) or for ten days (administration of tramadol).
as §3, §4, §5, §6, §7, §8, §9
The results are expressed as mean values±standard […] of the mean (±S.E.M.). The statistical significance of differences between groups was evaluated by Student's t-test. p≦0.05 was accepted as statistically significant.

For `CC(O)C(=O)[O-].CC(O)C(=O)[O-].[Mg+2]` (stereo not shown) [magnesium lactate, Magnesium lactate], the “enhancement of tramadol analgesia lasted until” value [1] was 45 min, the “time at which enhancement of tramadol analgesia appeared” value [1] was 5 min and the “time of maximum activity on tramadol analgesia” value [1] was 15 min. For the same compound, the “pain threshold one day after removal of the tested substances (oxycodone study)” value [2] was “rapid return of the pain threshold to control values”, the “course of enhancement of oxycodone analgesia” value ([2]; 7 consecutive days) was “reached its maximum on days 6 and 7” and the “day on which enhancement of oxycodone analgesia began” value ([2]; 7 consecutive days) was “third”. For the same compound, the “effect on long-term analgesic activity of oxycodone” value ([2]; 7 consecutive days) was “enhanced the long-term analgesic activity of the examined opioid”.
